This note sets out measurements from ChEMBL document CHEMBL1144134, “New biphenyl compounds with DNA strand-scission activity from Clusia paralicola” (J Nat Prod, 1999).

Molecules are shown by their SMILES. Converted amounts (≈) assume the structure as drawn. The source made the active and inactive calls. The calls are words filed in the database; no cut-off is given here.

Assay [1] in a line: Induction of DNA strand-scission activity assessed as relaxation of supercoiled DNA at 2.5 ug/ml. Also on record: scale not given: the % may be the effect or the level left.
In assay [2] the test system is KB. In words: Cytotoxicity against human KB cells. The class given is functional, cell-based.

For `CC(C)=CCC/C(C)=C/Cc1cc(O)c(O)cc1-c1cc(O)c(CC=C(C)C)c(O)c1` [CLUSIPARALICOLINE A], the Activity in assay [1] was 77%. In assay [2], the concentration for a half-maximal effect (EC50) was 3.8 µg/mL (≈ 8.99 µM).
On to `CC(C)=CCC/C(C)=C/Cc1cc(O)c(O)cc1-c1cc(O)c2c(c1)OC(C)(C)C=C2` [CLUSIPARALICOLINE B], for which, in assay [1], the Activity turned out to be 65%. The compound further showed a 50% effective concentration (EC50) in assay [2] of 4.5 µg/mL (≈ 10.7 µM).
`CC1(C)C=Cc2c(O)cc(-c3ccc(O)cc3)cc2O1` [CLUSIPARALICOLINE C]: the result in assay [1] was inactive. This compound also returned an EC50 in assay [2] of 5.3 µg/mL (≈ 19.8 µM).
